We go through five compounds from patent US8575382B2, “Low molecular weight pharmacological activity modulators” (“Ivy Pharm” LLC, priority 2009, dated 2013).

“And” between values parts separate entries of the source, which are not always exact repeats. Equal entries are not always repeated. Marks after values point to notes of the source that are not given here.

The test system of assay [1] is male rats with cytopenia. Briefly: Hemostimulating activity: general blood analysis of rats with cyclophosphane cytopenia. The format is in vivo. As to conditions: for hemostimulating effect (in words): rats with cyclophosphane cytopenia, summary of Tables 5-7; for ESR / Erythrocytes / Leukocytes / Lymphoctes / Reticulocytes / Segmented neutrophils / Thrombocytes / Lymphocytes: rats, acetylcysteine 9.5, lithium carbonate 3, aC-Li 10, Cu-aC-Li:aC-Li 10 mg/kg. As for the experimental part: The study was carried out on random-bred male white rats weighing 140-160 g, which were given a single subcutaneous injection of cyclophosphane in a dose of 100 mg/kg in physiological saline.
No. 3—animals which had received an injection of cyclophosphane and to which Cu-aC-Li:aC-Li in physiological saline was then administered in a dose of 10 mg/kg as a therapeutic means (amount of coordination compound 7.8×10^−8 M/kg);
No. 4—animals which had received an injection of cyclophosphane and to which aC-Li in physiological saline was then administered in a dose of 10 mg/kg as a therapeutic means;
No. 6—animals which had received an injection of cyclophosphane and to which acetylcysteine in physiological saline was then administered in a dose of 9.5 mg/kg as a therapeutic means (the amount of acetylcysteine was calculated on the basis of the proportion by weight of acetylcysteine (˜0.95) in 10 mg of […], which corresponds to 9.5 mg of the hydrogenated form of acetylcysteine).
The test preparations were administered on the third day after the administration of cyclophosphane.
Blood for hematological investigations was taken from the caudal vein 3, 7 and 14 days after administration of CP. At the end of each series (3, 7 and 14 days), the experimental animals were euthanized by an overdose of ether and blood was obtained from the caudal vein and bone marrow from the femur.
This study assessed the cellularity of the blood (the number of erythrocytes, thrombocytes, leukocytes, lymphocytes and neutrophils, and also the ESR) and bone marrow on 7-day administration of the test compounds to hemodepressed animals.

The test system of assay [2] is A431 line human epidermoid carcinoma cells. Briefly: Proliferative activity and death of A431 cells (cell count, propidium iodide flow cytofluorimetry). As to conditions: for Proportion of dead cells / Total cells: A431, EGF 200 ng/ml. Format: cell-based. The protocol:
The number of living and dead cells in a culture was determined after 24 and 48 hours.
A431 line human epidermoid carcinoma cells, obtained from the All-Russian Cell Culture Collection (Russian Academy of Sciences Institute of Cytology, St. Petersburg).
Cells are cultured in a CO2 incubator (New Brunswick Scientific) at +37° C. and with a CO2 content of 5%. Cells are grown in these conditions to a monolayer culture and are exposed to the action of the test compounds.
The DMEM medium (OOO PanEko, Moscow) with the addition of gentamicin K (80 mg/l), L-glutamine (300 mg/l) and fetal serum (PAA, Austria) to a final concentration of 10%, is used for culturing cells. Cells are transferred to a medium with a reduced serum content of 0.5% 24 hours before commencing an experiment.
The cells were then suspended by pipetting with an automatic pipette and were combined with the previously collected medium. Samples were centrifuged at room temperature for 5 min at 400 g, the supernatant was removed and the deposit was resuspended in pH 7.4 PBS phosphate-salt buffer.
Propidium iodide was added to a suspension of cells to a concentration of 50 μg/ml 5-10 min before measuring in a Bruker ACR 1000 flow cytofluorimeter. This stain is able to penetrate through a damaged cell membrane, and stained cells are dead.

For assay [3], the system named is mice with hyperglycemia caused by glucose. Briefly: Glucose loading test, blood sugar level. Format: in vivo. As to conditions: insulin 0.3 units/kg subcutaneously. As for the experimental part:
the glucose loading test (reduction in the sugar content in animals with hyperglycemia, caused by administration of glucose when fasting); Blood was obtained after 1 h by caudal vein puncture and the serum glucose level was determined by the ortho-toluidine method. Experiments to study the effect of the test substances on the blood glucose level were carried out on white mice weighing 17-18 g. The animals were deprived of food from the evening prior to the experiment. […] Immediately after injecting the glucose, the experimental animals were injected subcutaneously with a reference preparation (insulin in a dose of 0.3 units/kg). […] The blood glucose level was determined over a period of 4 hours with intervals of 1 hour.

Where [4] appears, read: day 3 after cyclophosphane 100 mg/kg.
Setting [5] is: day 7 after cyclophosphane 100 mg/kg.
The mark [6] stands for this setting: day 14 after cyclophosphane 100 mg/kg.
The mark [7] stands for this setting: Table 2, age of culture 24 hours, cysteine […], C—Pd […], C—Pd:C […].
Where [8] appears, read: Table 2, age of culture 48 hours, cysteine […], C—Pd […], C—Pd:C […].

Take `O=C([O-])[O-].[Li+].[Li+]` [Li2HCO3, lithium carbonate]: the “hemostimulating effect (in words)” value in assay [1] was “positive trends”. Also, in assay [1] (setting [4]), the ESR is recorded as 2.4 ± 0.42 mm/h, the Erythrocytes is recorded as 3.7 ± 0.21 10^12/l, the Leukocytes was 3.75 ± 0.46* 10^9/l and the Lymphoctes stood at 62 ± 3.8 %. In assay [1] (setting [4]), the Reticulocytes amounted to 0.118 ± 0.01 %, the Segmented neutrophils is on record as 19.7 ± 3.4 % and the Thrombocytes was 256 ± 45.3 10^9/l. Also, in assay [1] (setting [5]), the ESR was 2.0 ± 0.36 mm/h and 3.2 ± 0.80 mm/h; the Erythrocytes is 3.6 ± 0.29 10^12/l and 3.2 ± 0.18 10^12/l; the Leukocytes is 3.22 ± 0.11* 10^9/l and 4.8 ± 0.18** 10^9/l; the Reticulocytes is 1.1 ± 0.1% and 1.2 ± 0.2%. Further, in assay [1] (setting [5]), the Segmented neutrophils is 33 ± 1.7 % and 50.4 ± 0.6 %; the Thrombocytes is 119 ± 12.0** 10^3/l and 164 ± 10.0** 10^3/l. Moreover, in assay [1] (setting [6]), the ESR worked out at 2.4 ± 0.65 mm/h, the Erythrocytes was 4.9 ± 0.27 10^12/l, the Leukocytes was 5.9 ± 0.26** 10^9/l and the Lymphocytes was found to be 69.3 ± 0.9%. In assay [1] (setting [6]), the Reticulocytes was 1.4 ± 0.3%, the Segmented neutrophils is given as 14.9 ± 2.6 % and the Thrombocytes was 401 ± 59.9 10^3/l.
Consider `CC(=O)N[C@@H](CS)C(=O)[O-].[Li+]` [aC—Li, lithium salt of acetylcysteine], for which, in assay [1], the “hemostimulating effect (in words)” value was “positive trends”. In addition, in assay [1] (setting [4]), the ESR is 3.3 ± 0.80 mm/h, the Erythrocytes is on record as 4.0 ± 0.23 10^12/l, the Leukocytes is on record as 4.38 ± 0.31* 10^9/l and the Lymphoctes amounted to 45 ± 1.6 %. Besides, in assay [1] (setting [4]), the Reticulocytes was determined as 0.1 ± 0.1 %, the Segmented neutrophils was found to be 42 ± 1.6 % and the Thrombocytes is on record as 387 ± 17.4 10^9/l. Further, in assay [1] (setting [6]), the ESR came to 2.7 ± 0.49 mm/h, the Erythrocytes is listed as 5.2 ± 0.26 10^12/l, the Leukocytes was 5.6 ± 0.22** 10^9/l and the Lymphocytes was determined as 72.5 ± 1.4%. Moreover, in assay [1] (setting [6]), the Reticulocytes was 1.3 ± 0.3%, the Segmented neutrophils is listed as 20.3 ± 2.4 % and the Thrombocytes was 390 ± 38.3 10^3/l.
As to `CC(=O)N[C@@H](CS)C(=O)O` [acetyl cysteine, acetylcysteine], the “hemostimulating effect (in words)” value in assay [1] was “positive trends”. In assay [1] (setting [4]), the ESR is given as 2.2 ± 0.30 mm/h, the Erythrocytes is recorded as 3.0 ± 0.29 10^12/l, the Leukocytes was 3.26 ± 0.31* 10^9/l and the Lymphoctes was 68 ± 2.8 %. Besides, in assay [1] (setting [4]), the Reticulocytes was determined as 0.09 ± 0.006 %, the Segmented neutrophils is 17.6 ± 2.1 % and the Thrombocytes is given as 220 ± 45.3 10^9/l. In assay [1] (setting [5]), the ESR came out at 1.9 ± 0.39 mm/h, the Erythrocytes is recorded as 3.1 ± 0.33 10^12/l, the Leukocytes was 3.47 ± 0.08* 10^9/l and the Lymphocytes was determined as 51.5 ± 1.3 %. Also, in assay [1] (setting [5]), the Segmented neutrophils was determined as 30 ± 1.8 % and the Thrombocytes is 124 ± 11 10^9/L. In addition, in assay [1] (setting [6]), the ESR is 2.1 ± 0.73 mm/h, the Erythrocytes is given as 4.7 ± 0.21 10^12/l, the Leukocytes was 5.7 ± 0.22** 10^9/l and the Lymphocytes amounted to 72.1 ± 1.6%. In assay [1] (setting [6]), this compound displayed a Reticulocytes of 1.1 ± 0.4% and a Segmented neutrophils of 13.3 ± 1.9 %.
With “Epidermal growth factor: physiological high-affinity ligand of the EGF receptor”, the “Proportion of dead cells” value in assay [2] (setting [7]) came to 19%; in assay [2] (setting [8]) it was 23%; in assay [2] (Table 3, 24 hours), 22%; in assay [2] (Table 3, 48 hours), 29%. Further, the Total cells in assay [2] (setting [7]) turned out to be 47300 mL⁻¹; in assay [2] (setting [8]) it was 68800 mL⁻¹; in assay [2] (Table 3, 24 hours), 52000 mL⁻¹; in assay [2] (Table 3, 48 hours), 71700 mL⁻¹. The “effect on the proliferative activity of A431 cells (in words)” value in assay [2] (summary of Table 2) is “maximum stimulating effect”.
Insulin: reference preparation: the Blood sugar level in assay [3] (1 hour) was 1.2 ± 0.1 mmol/L; in assay [3] (2 hours), 1.4 ± 0.1 mmol/L; in assay [3] (3 hours) it was 1.6 ± 0.2 mmol/L; in assay [3] (4 hours) it was 2.0 ± 0.1 mmol/L.
